# From US11952363B2, “Piperazine compounds for the treatment of autoimmune disease” (Hoffmann-La Roche Inc., priority 2018, dated 2024)
# pIC50: −log10 of the molar value.
# Molecular target: T1, hERG (Homo sapiens, UniProt Q12809)
# T1 construct: expressed in transfected cells
# Test: hERG channel inhibition assay (patch-clamp, CHO hERG cells)
# Assay type: cell-based
# Details: for pIC50 / IC20: CHO hERG cells, whole-cell patch-clamp; for IC20: human, CHO cells stably expressing hERG; for hERG IC20/TLR7 IC50 / hERG IC20/TLR8 IC50 / hERG IC20/TLR9 IC50: safety ratio, >30 suggests sufficient window
# Experimental: The hERG K^+ channels were cloned in humans and stably expressed in a CHO (Chinese hamster ovary) cell line. CHOhERG cells were used for patch-clamp (voltage-clamp, whole-cell) experiments. Cells were stimulated by a voltage pattern to activate hERG channels and conduct I KhERG currents (rapid delayed outward rectifier potassium current of the hERG channel). After the cells were stabilized for a few minutes, the amplitude and kinetics of I KhERG were recorded at a stimulation frequency of 0.1 Hz (6 bpm). Thereafter, the test compound was added to the preparation at increasing concentrations. For each concentration, an attempt was made to reach a steady-state effect, usually, this was achieved within 3-10 min at which time the next highest concentration was applied. The amplitude and kinetics of IKhERG are recorded in each concentration of the drug which were compared to the control values (taken as 100%). […]
# T1 sequence (Q12809 whole entry): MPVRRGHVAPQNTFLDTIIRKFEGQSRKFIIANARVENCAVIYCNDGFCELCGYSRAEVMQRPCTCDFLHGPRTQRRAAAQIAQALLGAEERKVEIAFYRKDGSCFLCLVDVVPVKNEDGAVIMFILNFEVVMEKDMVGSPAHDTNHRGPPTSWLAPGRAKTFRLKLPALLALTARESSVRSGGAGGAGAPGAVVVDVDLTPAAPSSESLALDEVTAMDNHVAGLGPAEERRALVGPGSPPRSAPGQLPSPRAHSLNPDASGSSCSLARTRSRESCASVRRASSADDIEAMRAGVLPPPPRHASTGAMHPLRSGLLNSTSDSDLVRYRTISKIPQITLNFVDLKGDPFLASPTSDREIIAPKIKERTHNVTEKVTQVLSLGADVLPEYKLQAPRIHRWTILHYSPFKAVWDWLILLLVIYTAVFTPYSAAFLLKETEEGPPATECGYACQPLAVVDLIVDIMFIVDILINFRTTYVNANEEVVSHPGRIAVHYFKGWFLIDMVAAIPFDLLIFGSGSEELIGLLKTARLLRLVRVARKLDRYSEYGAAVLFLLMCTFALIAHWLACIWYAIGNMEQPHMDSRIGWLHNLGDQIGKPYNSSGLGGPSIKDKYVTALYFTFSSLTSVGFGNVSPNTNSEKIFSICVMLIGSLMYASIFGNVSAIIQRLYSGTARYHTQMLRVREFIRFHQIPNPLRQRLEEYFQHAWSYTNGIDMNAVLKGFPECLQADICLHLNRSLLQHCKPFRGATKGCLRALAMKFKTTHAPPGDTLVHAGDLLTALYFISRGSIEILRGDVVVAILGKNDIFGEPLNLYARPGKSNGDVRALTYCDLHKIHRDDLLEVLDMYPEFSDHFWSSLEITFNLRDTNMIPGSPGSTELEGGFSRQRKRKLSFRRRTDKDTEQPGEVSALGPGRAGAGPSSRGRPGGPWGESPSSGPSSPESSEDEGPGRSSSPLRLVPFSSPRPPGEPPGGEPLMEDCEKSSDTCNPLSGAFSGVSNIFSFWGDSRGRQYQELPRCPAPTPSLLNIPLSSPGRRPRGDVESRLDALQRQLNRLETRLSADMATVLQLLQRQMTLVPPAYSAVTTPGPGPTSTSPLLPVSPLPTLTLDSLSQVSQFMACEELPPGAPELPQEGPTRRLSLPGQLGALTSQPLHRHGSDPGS
SMILES,pIC50,IC20 [µM],hERG IC20/TLR7 IC50,hERG IC20/TLR8 IC50,hERG IC20/TLR9 IC50
"C[C@@H]1CN(c2ccc(C#N)c3ncccc23)C[C@H](C)N1Cc1ccc(N2CCNCC2)nc1 [Example 3, 5-[(3R,5S)-3,5-Dimethyl-4-[(6-piperazin-1-yl-3-pyridyl)methyl]piperazin-1-yl]quinoline-8-carbonitrile]",< 4.70,7.4,383,240,79
"C[C@@H]1CN(c2ccc(C#N)c3ncccc23)C[C@H](C)N1Cc1ncc(N2CCNCC2)cn1 [Example 4, 5-[(3S,5R)-3,5-Dimethyl-4-[(5-piperazin-1-ylpyrimidin-2-yl)methyl]piperazin-1-yl]quinoline-8-carbonitrile]",< 4.70,6.3,384,355,45
"C[C@@H]1CN(c2ccc(C#N)c3ncccc23)C[C@H](C)N1Cc1ccc(N2CCNCC2)cn1 [Example 5, 5-[(3S,5R)-3,5-Dimethyl-4-[(5-piperazin-1-yl-2-pyridyl)methyl]piperazin-1-yl]quinoline-8-carbonitrile]",< 4.70,> 10,>833,>666,>119
"C[C@@H]1CN(c2ccc(C#N)c3ncccc23)C[C@H](C)N1Cc1ccc(N2CCN(C(=O)C3CCCN3)CC2)cn1 (stereo partly drawn) [Example 10, 5-[(3R,5S)-3,5-Dimethyl-4-[[5-[4-(pyrrolidine-2-carbonyl)piperazin-1-yl]-2-pyridyl]methyl]piperazin-1-yl]quinoline-8-carbonitrile]",< 4.70,> 10,>145,>197,>242
"C[C@@H]1CN(c2ccc(C#N)c3ncccc23)C[C@H](C)N1Cc1ccc(N2CCN(C(=O)CN(C)C)CC2)cn1 [Example 11, 5-[(3S,5R)-4-[[5-[4-[2-(Dimethylamino)acetyl]piperazin-1-yl]-2-pyridyl]methyl]-3,5-dimethyl-piperazin-1-yl]quinoline-8-carbonitrile]",< 4.70,> 10,>198,>289,>104
"C[C@@H]1CN(c2ccc(C#N)c3ncccc23)C[C@H](C)N1CC(=O)N1Cc2ccc(N3CCNCC3)cc2C1 [Example 16, 5-[(3R,5S)-3,5-Dimethyl-4-[2-oxo-2-(5-piperazin-1-ylisoindolin-2-yl)ethyl]piperazin-1-yl]quinoline-8-carbonitrile]",< 4.70,> 10,>289,>182,>134
